US7704956B2, “Glutathione-based delivery system” (Industrial Technology Research Institute, priority 2005, dated 2010)

Assays:
[1] = Pharmacokinetics of endomorphin-1 liposome (plasma, LC-MS/MS); type: in vivo, wistar mouse; conditions: 7.5 mg/kg, after 2 hr
Procedure: The plasma concentration of endomorphin-1 of a wistar mouse was analyzed by LC-MS/MS to study the pharmacokinetics of the endomorphin-1 liposome. […] However, the endomorphin-1 liposomes of Examples 14 and 17 prolonged the retention time of the endomorphin-1 in plasma to 24 hr. Also, T1/2 was prolonged from 6 min. to 2.4 hr and 1.8 hr, respectively.

[2] = Serum stability test of met-enkephalin liposome in fetal bovine serum; type: in vitro ADME; conditions: fetal bovine serum 1:1 (v/v), 37° C. water bath, 0, 1, 2 and 4 hours, gel filtration
From the text: The 2 carriers provided by Example 5 and fetal bovine serum (FBS) were mixed with 1:1 (v/v) to form a solution.

NC(=O)[C@H](Cc1ccccc1)NC(=O)[C@H](Cc1c[nH]c2ccccc12)NC(=O)[C@@H]1CCCN1C(=O)[C@@H](N)Cc1ccc(O)cc1 [endomorphin-1 solution, endomorphin-1]
plasma concentration of endomorphin-1 [1]: no endomorphin-1 was detected

met-enkephalin [free met-enkephalin]
residual concentration of met-enkephalin [2]: 2%
